# Biological target: GST tagged truncated human mutant G2019S LRRK2 (Homo sapiens (Human), UniProt Q5S007, G2019S)
# Experiment: LRRK2 Km ATP LanthaScreen Assay
# Format: biochemical
# Conditions: 134 μM ATP (Km ATP), LRRKtide substrate, negative log of mean IC50 (molar)
# Procedure, shortened: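 Truncated GST-tagged G2019S LRRK2 (1.25 nM enzyme solution) was preincubated with compound for 15 min at rt, then reacted for 90 min with fluorescein-LRRKtide and 134 μM ATP (Km) in Tris pH 8.5/MgCl2 buffer. After an EDTA stop, TR-FRET used a Tb anti-pERM antibody (520/495 nm ratio). IC50 came from a 4-parameter fit and is reported as pIC50, mean of several runs.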
# GST tagged truncated human mutant G2019S LRRK2, sequence (Q5S007 970-2527 G2019S): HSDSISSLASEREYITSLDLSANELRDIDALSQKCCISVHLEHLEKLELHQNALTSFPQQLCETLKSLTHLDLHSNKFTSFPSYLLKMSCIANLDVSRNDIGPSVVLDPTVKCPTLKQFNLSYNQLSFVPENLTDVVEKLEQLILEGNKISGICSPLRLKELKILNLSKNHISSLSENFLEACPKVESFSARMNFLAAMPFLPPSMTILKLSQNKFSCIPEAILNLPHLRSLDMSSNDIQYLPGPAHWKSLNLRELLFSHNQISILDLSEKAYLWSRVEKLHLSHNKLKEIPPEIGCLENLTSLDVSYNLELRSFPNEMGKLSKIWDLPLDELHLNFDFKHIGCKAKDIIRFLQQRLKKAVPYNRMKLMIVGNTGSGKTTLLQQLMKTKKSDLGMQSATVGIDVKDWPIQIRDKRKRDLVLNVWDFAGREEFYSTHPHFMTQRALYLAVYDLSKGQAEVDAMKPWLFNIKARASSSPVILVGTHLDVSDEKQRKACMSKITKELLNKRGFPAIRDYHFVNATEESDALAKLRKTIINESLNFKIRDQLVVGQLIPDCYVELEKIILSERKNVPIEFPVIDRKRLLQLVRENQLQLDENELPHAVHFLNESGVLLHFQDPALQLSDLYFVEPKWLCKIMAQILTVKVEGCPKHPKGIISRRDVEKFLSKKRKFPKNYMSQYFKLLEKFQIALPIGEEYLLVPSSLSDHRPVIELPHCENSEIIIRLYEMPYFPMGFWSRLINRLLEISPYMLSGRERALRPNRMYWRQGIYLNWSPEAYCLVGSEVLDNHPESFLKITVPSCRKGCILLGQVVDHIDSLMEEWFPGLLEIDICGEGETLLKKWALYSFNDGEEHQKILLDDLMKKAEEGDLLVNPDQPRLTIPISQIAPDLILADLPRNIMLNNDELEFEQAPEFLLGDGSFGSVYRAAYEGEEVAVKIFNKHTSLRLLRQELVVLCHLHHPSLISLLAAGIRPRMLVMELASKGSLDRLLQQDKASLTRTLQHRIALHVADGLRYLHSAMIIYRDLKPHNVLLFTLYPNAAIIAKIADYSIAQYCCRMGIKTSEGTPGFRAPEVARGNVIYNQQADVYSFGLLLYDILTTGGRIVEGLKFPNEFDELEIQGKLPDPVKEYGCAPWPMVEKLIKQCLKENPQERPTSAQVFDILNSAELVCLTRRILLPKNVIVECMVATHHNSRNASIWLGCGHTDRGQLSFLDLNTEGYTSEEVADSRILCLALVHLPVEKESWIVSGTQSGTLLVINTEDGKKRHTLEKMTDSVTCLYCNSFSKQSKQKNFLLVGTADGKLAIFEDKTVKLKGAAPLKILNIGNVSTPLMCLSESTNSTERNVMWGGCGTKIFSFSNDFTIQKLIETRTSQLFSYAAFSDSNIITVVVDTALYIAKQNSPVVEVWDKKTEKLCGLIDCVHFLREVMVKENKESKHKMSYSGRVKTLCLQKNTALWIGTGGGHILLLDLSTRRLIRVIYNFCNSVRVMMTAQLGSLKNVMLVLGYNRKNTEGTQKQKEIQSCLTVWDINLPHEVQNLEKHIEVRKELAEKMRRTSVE
row,SMILES,LRRK2 pIC50
1,"CN1CCN(CCCn2cc(NC(=O)c3csc(-c4cn[nH]c4)n3)cn2)CC1 [Example 7-34, N-{1-[3-(4-methylpiperazin-1-yl)propyl]-1H-pyrazol-4-yl}-2-(1H-pyrazol-4-yl)-1,3-thiazole-4-carboxamide]",5.95
2,"Cn1cc(-c2nc(C(=O)Nc3cnn(C4CCC4)c3)cs2)cn1 [Example 9-28, N-(1-cyclobutyl-1H-pyrazol-4-yl)-2-(1-methyl-1H-pyrazol-4-yl)-1,3-thiazole-4-carboxamide]",7.85
3,"Cn1cc(NC(=O)c2csc(-c3cn[nH]c3)n2)c(C(N)=O)n1 [Example 1-13, N-(3-carbamoyl-1-methyl-1H-pyrazol-4-yl)-2-(1H-pyrazol-4-yl)-1,3-thiazole-4-carboxamide]",8.17
4,"O=C(Nc1cnn(CC2CC(F)(F)C2)c1)c1csc(-c2cn[nH]c2)n1 [Example 1-35, N-{1-[(3,3-difluorocyclobu-tyl)methyl]-1H-pyrazol-4-yl}-2-(1H-pyrazol-4-yl)-1,3-thiazole-4-carboxamide]",7.77
5,"O=C(Nc1cnn(CC2(F)CCC2)c1)c1csc(-c2cn[nH]c2)n1 [Example 1-43, N-{1-[(1-fluorocyclobutyl)methyl]-1H-pyrazol-4-yl}-2-(1H-pyrazol-4-yl)-1,3-thiazole-4-carboxamide]",7.64
6,"Cn1cc(-c2nn(C)cc2NC(=O)c2csc(-c3cn[nH]c3)n2)cn1 [Example 1-31, N-(1,1′-dimethyl-1H,1′H-3,4′-bipyrazol-4-yl)-2-(1H-pyrazol-4-yl)-1,3-thiazole-4-carboxamide]",7.95
7,"O=C(Nc1cnn(Cc2ccc(F)cc2)c1)c1csc(-c2cn[nH]c2)n1 [Example 7-17, N-[1-(4-fluorobenzyl)-1H-pyrazol-4-yl]-2-(1H-pyrazol-4-yl)-1,3-thiazole-4-carboxamide]",7.76
8,"CCOCCn1cc(NC(=O)c2csc(-c3cn[nH]c3)n2)c(C(F)F)n1 [Example 7-40, N-[3-(difluoromethyl)-1-(2-ethoxyethyl)-1H-pyrazol-4-yl]-2-(1H-pyrazol-4-yl)-1,3-thiazole-4-carboxamide]",6.97
